Several values for one entry are separate records, joined by “and”; a condition that tells them apart may be missing. Equal entries are not always repeated. Where two headings read alike, the source gives them in different places.
Experiments:
[1] = biological target: T1, PNKP (Homo sapiens (Human), UniProt Q96T60); conditions: intrinsic (tryptophan) fluorescence quenching titration, earlier publication; read-out: dissociation constant (Kd); cited from earlier work
[2] = test system: cells in which PNKP expression was down-regulated by shRNA; conditions: cited from earlier work
[3] = biological target: T1, PNKP; experiment: Universal molecular beacon (U-MB) fluorescence assay of PNKP phosphatase activity, IC50; format: biochemical
Method: (§1) We chose to first rate and compare the analogues using a single-point measurement at 20 μM concentration. […] Only the top-rated analogues were further evaluated with an IC50 and a dissociation constant (Kd) determination.

[4] = test system: limited panel of phosphatase enzymes; conditions: cited from earlier work
[5] = test system: MDA-MB-231 breast cancer cells; conditions: non-toxic doses; cited from earlier work
[6] = biological target: murine PNKP (Mus musculus (Mouse), UniProt Q9JLV6); conditions: compared with human PNKP; cited from earlier work
[7] = test system: myeloid leukemia cells; conditions: cited from earlier work
[8] = test system: human A549 lung carcinoma cells; conditions: non-toxic doses; cited from earlier work
[9] = concentrations of 5-10 μM; cited from earlier work
[10] = test system: radioresistant prostate cancer cells; conditions: cited from earlier work
[11] = biological target: T1, PNKP; experiment: Binding affinity (Kd) by steady-state fluorescence spectroscopy, protein tryptophan fluorescence quenching
Method: as §1
Freschauf, G. K., Mani, R. S., Mereniuk, T. R., Fanta, M., Virgen, C. A., Dianov, G. L., Grassot, J. M., Hall, D. G., and Weinfeld, M. Mechanism of action of an imido-piperidine inhibitor of human polynucleotide kinase/phosphatase.

[12] = test system: HCT116 PTEN−/− cells; experiment: Clonogenic survival assay, synthetic lethality; format: cell-based, human
Method: (§2) Cells, seeded in 60-mm dishes 24 hours in advance, were treated with PNKP inhibitors for 9-14 consecutive days at nontoxic concentrations. Colonies were then stained with a crystal violet (Sigma, Oakville, ON, CA) stain containing 25% methanol for 30 min, after which the plates were washed in warm water and left to dry overnight. Colonies consisting of 50 cells or more were counted using an automated colony counter (Oxford Optronix, Abingdon, UK).
(§3) To investigate whether the new encapsulated PNKP 3′-phosphatase inhibitors could induce a synthetic lethal response in PTEN-deficient cells, we performed clonogenic survival assays with both HCT116 PTEN+/+ and HCT116 PTEN−/− cells. […] However, the disruption of PNKP (chemically by inhibitors) or PTEN (genetically) individually was not lethal. These findings confirm our previous observation that a synthetic lethal relationship exists between PTEN and PNKP.

[13] = test system: HCT116 PTEN+/+ cells; experiment: Clonogenic survival assay, PTEN wild-type control cells; format: cell-based; conditions: encapsulated, 9-14 days
Method: as §2, §3

[14] = test system: HCT116 cells; experiment: Clonogenic survival assay, radio/chemosensitization; format: cell-based, human
Method: (§4) Cells, seeded in 60-mm dishes 24 hours in advance, were treated with PNKP inhibitors for 9-14 consecutive days at nontoxic concentrations. […] Colonies consisting of 50 cells or more were counted using an automated colony counter (Oxford Optronix, Abingdon, UK).

[15] = test system: HCT116 cells; experiment: MTS cell proliferation assay; format: cell-based, human; conditions: for usable concentration in clonogenic survival assays (not affecting cell growth): 72 h MTS
Method: Free inhibitor was dissolved in DMSO in a way to keep the final concentration of DMSO<1%. After 72 h, 11 μL of the pre-mixed optimized dye solution (tetrazolium dye) was added to each well and cells were incubated for 4 more hours at 37° C. The absorbance recorded at 490 nm on a FLUOstar Optima® plate reader (BMG Labtech Inc., Durham, N.C.) was used as a representation of the relative number of metabolically active cells in the culture.

[16] = Solubility; format: physicochemical
[17] = test system: HCT116 wild type (wt) and PTEN knockout colorectal cells xenograft tumours; experiment: Subcutaneous xenograft tumour response; format: in vivo; conditions: NIHIII mice, intravenous, three times 2 days apart, free or encapsulated
Method: In FIG. 32, we have injected 500,000 HCT116 colorectal cancer cells subcutaneously in the right flank of NIHIII mice. […] Tumour volume was then calculated from the measurement of tumour dimensions and used to plot change in tumour volume over time.

[18] = test system: HCT116 PNKP-knock out cells; experiment: Clonogenic survival assay, radio/chemosensitization in PNKP knock-out cells; format: cell-based, human; conditions: free or encapsulated
Method: as §4

[19] = In vitro release of PNKP inhibitors by dialysis method; format: physicochemical
Method: The in vitro release of encapsulated PNKP inhibitors was studied using a dialysis method. Each dialysis bag (Spectrapor dialysis tubing, MWCO 3.5 kDa, Spectrum Laboratories, Rancho Dominguez, Calif.), containing 2 mL of the micellar formulation or free drug dissolved in acetone, was placed into 300 mL of distilled water maintained at 37° C. in a shaking water bath (65 rpm, Julabo SW 22 shaking water bath, Seelbach, Germany). At selected time intervals, aliquots of 200 μL from the inside of the dialysis bag were collected. The amount of PNKP inhibitor was analyzed using a Varian Prostar 210 HPLC system. Reversed phase chromatography was carried out with a Microsorb-MV 5 μm C18-100 Å column (4.6 mm×250 mm) with 20 μL of sample injected and eluted under isocratic conditions with a solution of 0.1% trifluroacetic acid/acetonitrile (1:1 v/v) at a flow rate of 1.0 mL/min at room temperature.

[20] = biological target: EGFR (Homo sapiens (Human), UniProt P00533); conditions: read-out: dissociation constant; cited from earlier work

Sequence of murine PNKP (Q9JLV6 whole entry): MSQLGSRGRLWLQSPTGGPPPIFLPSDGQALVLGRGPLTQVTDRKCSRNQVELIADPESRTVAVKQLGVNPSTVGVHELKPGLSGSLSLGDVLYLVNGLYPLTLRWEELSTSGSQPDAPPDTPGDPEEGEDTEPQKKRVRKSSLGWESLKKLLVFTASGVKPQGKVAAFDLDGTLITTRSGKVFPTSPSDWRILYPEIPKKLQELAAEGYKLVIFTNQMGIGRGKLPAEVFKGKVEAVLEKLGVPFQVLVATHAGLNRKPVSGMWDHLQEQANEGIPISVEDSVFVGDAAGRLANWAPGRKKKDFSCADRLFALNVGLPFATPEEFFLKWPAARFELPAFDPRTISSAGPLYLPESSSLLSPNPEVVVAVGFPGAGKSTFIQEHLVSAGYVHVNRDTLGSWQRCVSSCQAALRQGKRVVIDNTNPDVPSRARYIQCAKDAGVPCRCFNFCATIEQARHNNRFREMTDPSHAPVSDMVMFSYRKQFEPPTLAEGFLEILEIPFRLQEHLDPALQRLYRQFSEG

In the case of `CCCCCCCCCC[C@@H](O)[C@H]1C=CC2C(=O)N(c3ccccc3)C(=O)[C@H]2N1Nc1ccc([N+](=O)[O-])cc1` (stereo in doubt) [Compound A12B4C3, 2-(1-hydroxyundecyl)-1-(4-nitrophenylamino)-6-phenyl-6,7a-dihydro-1H-pyrrolo[3,4-b]pyridine-5,7(2H, 4aH)-dione], the Kd [1] is listed as 340 nM, the “sensitization of PNKP-down-regulated cells” value [2] is listed as “failed to sensitize” and the IC50 [3] is listed as 14000 nM. The specificity [4] was “specificity for PNKP”, the “sensitization to γ-radiation and camptothecin” value [5] was “able to sensitize” and the “inhibition of murine PNKP” value [6] was “only slightly reduced efficacy”. For the same compound, the “sensitization to Auger electron-emitting radioimmunoconjugate” value [7] was “sensitizes”, the “sensitization to γ-radiation and camptothecin” value [8] was “able to sensitize” and the cytotoxicity [9] was “low cytotoxicity”. For the same compound, the “sensitization to irradiation by carbon ions” value [10] was “sensitizes” and the Kd [11] was 370 nM.
In the case of `CCCCCCCCCC[C@@H](O)[C@@H]1C=CC2C(=O)N(c3ccc(N4CCNCC4)cc3)C(=O)[C@H]2N1Nc1ccc([N+](=O)[O-])cc1` (some centres unmarked) [Compound A12B4C50], the “level at which encapsulated inhibitor induced synthetic lethality” value [12] is reported as 4 µM, the “toxicity to HCT116 PTEN+/+ cells” value [13] is reported as “showed toxicity” and the “level at which encapsulated inhibitor sensitized HCT116 cells to radiation and irinotecan” value [14] is reported as 4 µM. For the same compound, the “usable concentration in clonogenic survival assays (not affecting cell growth)” value [15] was at most 5 µM, the “concentrations at which cell growth was affected” value ([15]; free and encapsulated, 72 h) was over 5 µM and the water solubility [16] was “low water solubility”.
For `O=C1C2C=C[C@H]([C@H](O)c3ccc(Br)cc3)N(Nc3ccc([N+](=O)[O-])cc3)[C@@H]2C(=O)N1c1ccccc1` (some centres unmarked) [Compound A44B4C3], the “solubility compared with A12B4C3” value [16] was “more soluble”.
With `COc1ccccc1[C@@H](O)[C@H]1C=CC2C(=O)N(c3ccccc3)C(=O)[C@H]2N1Nc1ccc([N+](=O)[O-])cc1` (some centres unmarked) [Compound A83B4C3] the “solubility compared with A12B4C3” value [16] was “more soluble”.
For `COc1ccccc1C(O)C1C=CC2C(=O)N(Cc3cccc4ccccc34)C(=O)C2N1Nc1ccc([N+](=O)[O-])cc1` (centres unmarked) [Compound A83B4C63, 2-[hydroxy(2-methoxyphenyl)methyl]-6-(naphthalen-1-ylmethyl)-1-[(4-nitrophenyl)amino]2H,4aH,7aH-pyrrolo[3,4-b]pyridine-5,7-dione], the “tumour volume response, PTEN positive versus PTEN negative tumour model” value [17] was “not as effective in the PTEN positive tumour model as it is in the PTEN negative tumour model”, the “synthetic lethality in HCT116 PTEN−/− cells” value ([12]; 9-14 days treatment) was “more specifically toxic to PTEN-deficient cells than A12B4C50” and the “level at which encapsulated inhibitor induced synthetic lethality” value [12] was 4 µM. The “level at which encapsulated inhibitor sensitized HCT116 cells to radiation and irinotecan” value [14] was 6 µM, the “sensitization of HCT116 PNKP-knock out cells to radiation or irinotecan” value [18] was “failed to further sensitize” and the “usable concentration in clonogenic survival assays (not affecting cell growth)” value [15] was under 20 µM. The water solubility [16] was “low water solubility”, the “drug released from the dialysis bag” value ([19]; free drug, within 6 h, 37° C.) was 59.4% and the drug released ([19]; from PEO-b-PBCL micelles, within 6 h, 37° C.) was 30.6%. For the same compound, the drug release ([19]; from PEO-b-PCL formulations, within 24 h) was 84.2%, the drug released ([19]; from PEO-b-PCL micelles, within 6 h, 37° C.) was 66.5% and the cumulative release ([19]; from respective optimum micelles (PEO-b-PCCL for A12B4C50, PEO-b-PBCL for A83B4C63), within 24 h) was 48% and 48.2%.
For YHWYGYTPQNVI [GE11], the Kd [20] is listed as about 22 nM.
